# Experimental data as given in patent US20230029496A1, “AMINO ACID ALTERNATIVE CURING SYSTEM” (THE TEXAS A&M UNIVERSITY SYSTEM, priority 2019, published 2023).
# Where “and” joins values, the source holds several entries; their conditions need not be identical. Equal entries are not always repeated. Where two headings read alike, the source gives them in different places. Marks after values point to notes of the source that are not given here.
# How the values were obtained:
# NOS system [1] = experiment: NO-heme, total heme, nitrosylation in test beef frankfurters (Example 12); details: 156 ppm sodium nitrite with sodium erythorbate 547 ppm
# Procedure: (§1) The remaining nonmeat ingredients were added (except the antimicrobial) and chopped at 2000 rpm for one minute. Protecta (sodium acetate antimicrobial) was added and the emulsion chopped at 4000 rpm for one minute. The emulsion was evacuated and placed into a vacuum assisted stuffer where each test emulsion was stuffed and twist linked into 22 mm cellulose casings weighing 40 g each. The frankfurter links were hung on smokehouse trucks, placed into a commercial smokehouse and thermally processed to 160° F. (Table 18).
# (§2) After thermal processing and chilling (40° F.), the casings were peeled from the frankfurters and were vacuum packaged and stored under refrigerated conditions for residual nitrite and nitrosylation. […] This was done to determine if the L-arginine could the NOS system to generate sufficient NO for cure color development and residual nitrite for antioxidant and antimicrobial effect.
# [2] = 156 ppm sodium nitrite
# Procedure: (§3) After thermal processing and chilling according to USDA-FSIS Appendix A—Thermal processing (71° C.) and B—Cooling procedures (2° C.) guidelines, the frankfurters will be vacuum packaged and stored under refrigeration (2° C.) until analyzed at 0, 14, 28 and 56 days post manufacture.
# Cooked sample water activity was measured (in triplicate) using an Aqualab Model Series 3 water activity meter.
# (§4) Samples were vacuum packaged and refrigerated and evaluated on Day 1, 7, 14, 28 and 56 post manufacture. Differences between treatment and control samples will be determined using Tukey's Least Significant Difference procedure at P≤0.05 level. The experiment was replicated three times.
# [3] = system: nitric oxide synthase system; details: 156 ppm sodium nitrite
# Procedure: as §3
# The samples were analyzed for residual nitrite after deproteinization by sample preparation for amino acid analysis by HPLC.
# as §4
# [4] = system: nitric oxide synthase system; details: beef; for Residual Nitrite, LSMean main effect of Temperature: sodium nitrite
# Procedure: (§5) Fresh ground meat (beef, pork or poultry) was separated in ˜0.5 Kg batches and mixed with 2% salt and 10% added water. […] Each individual batch was mixed (1 min) in a food processor, removed for temperature and pH analyses and then placed into a jerky extruder tube. Approximately 25 g of sample were extruded into 50 mL centrifuge, then capped and labeled and placed into a controlled water batch and heated to a designated internal endpoint temperature (132, 158, or 165° F.).
# (§6) Samples also contained 547 ppm sodium erythorbate, a cure accelerator (Phase I) and without sodium erythorbate (Phase II). Samples were placed into test tubes and heated in a controlled water bath to 132, 158 and 165° F. Samples were held in a 40° F. cooler for seven days then tested for residual nitrite. Residual nitrite was tested after deproteinization for amino acid analysis by HPLC. Determination of nitrite (UV/VIS Spectrophotometric Method) was used to detect any residual nitrite for best results in detecting minute amounts of nitrite. Residual nitrite levels were read in a 96 well plate reader at 540 nm.
# (§7) Both phases of the experiment were designed as a factorial (concentration level and endpoint temperature) randomized complete block design with three replications. […] Least squares means were generated and Tukey's HSD used to determine significance at P≤0.05.
# [5] = system: nitric oxide synthase system; details: pork; for Residual Nitrite, LSMean main effect of Temperature: sodium nitrite
# Procedure: as §5, §6, §7
# [6] = system: nitric oxide synthase system; details: poultry; for Residual Nitrite, LSMean main effect of Temperature: sodium nitrite
# Procedure: as §5, §6, §7
# NOS system [7] = experiment: Residual nitrite in test beef frankfurters (Example 12); details: 156 ppm sodium nitrite with sodium erythorbate 547 ppm
# Procedure: as §1, §2
# [8] = Phase I, with 547 ppm sodium erythorbate, 120 ppm sodium nitrite
# [9] = Phase I, with 547 ppm sodium erythorbate, 120 ppm sodium nitrite, 132° F.
# [10] = Phase I, with 547 ppm sodium erythorbate, 120 ppm sodium nitrite, 158° F.
# [11] = Phase I, with 547 ppm sodium erythorbate, 120 ppm sodium nitrite, 165° F.
# [12] = Phase I, with 547 ppm sodium erythorbate, 156 ppm sodium nitrite
# [13] = Phase I, with 547 ppm sodium erythorbate, 156 ppm sodium nitrite, 132° F.
# [14] = Phase I, with 547 ppm sodium erythorbate, 156 ppm sodium nitrite, 158° F.
# [15] = Phase I, with 547 ppm sodium erythorbate, 156 ppm sodium nitrite, 165° F.
# [16] = Phase I, with 547 ppm sodium erythorbate, 200 ppm sodium nitrite
# [17] = Phase I, with 547 ppm sodium erythorbate, 200 ppm sodium nitrite, 132° F.
# [18] = Phase I, with 547 ppm sodium erythorbate, 200 ppm sodium nitrite, 158° F.
# [19] = Phase I, with 547 ppm sodium erythorbate, 200 ppm sodium nitrite, 165° F.
# [20] = Phase I, with 547 ppm sodium erythorbate, 132° F.
# [21] = Phase I, with 547 ppm sodium erythorbate, 158° F.
# [22] = Phase I, with 547 ppm sodium erythorbate, 165° F.
# [23] = Phase II, without 547 ppm sodium erythorbate, 120 ppm sodium nitrite
# [24] = Phase II, without 547 ppm sodium erythorbate, 120 ppm sodium nitrite, 132° F.
# [25] = Phase II, without 547 ppm sodium erythorbate, 120 ppm sodium nitrite, 158° F.
# [26] = Phase II, without 547 ppm sodium erythorbate, 120 ppm sodium nitrite, 165° F.
# [27] = Phase II, without 547 ppm sodium erythorbate, 156 ppm sodium nitrite
# [28] = Phase II, without 547 ppm sodium erythorbate, 156 ppm sodium nitrite, 132° F.
# [29] = Phase II, without 547 ppm sodium erythorbate, 156 ppm sodium nitrite, 158° F.
# [30] = Phase II, without 547 ppm sodium erythorbate, 156 ppm sodium nitrite, 165° F.
# [31] = Phase II, without 547 ppm sodium erythorbate, 200 ppm sodium nitrite
# [32] = Phase II, without 547 ppm sodium erythorbate, 200 ppm sodium nitrite, 132° F.
# [33] = Phase II, without 547 ppm sodium erythorbate, 200 ppm sodium nitrite, 158° F.
# [34] = Phase II, without 547 ppm sodium erythorbate, 200 ppm sodium nitrite, 165° F.
# [35] = Phase II, without 547 ppm sodium erythorbate, 132° F.
# [36] = Phase II, without 547 ppm sodium erythorbate, 158° F.
# [37] = Phase II, without 547 ppm sodium erythorbate, 165° F.
smiles,measurement,setting,value
"O=NO [Sodium Nitrite, Sodium nitrite, reference compound]",NO-Heme,NOS system [1],17.88^b ppm
same,Nitrosylation,NOS system [1],94.93^b %
same,Total Heme,NOS system [1],79.11^a ppm
same,Nitrosylation,NOS system [1]; listed as sodium nitrite,94.93%
same,water activity (Aw),[2]; Day 1,0.979
same,water activity (Aw),[2]; Day 7,0.979
same,water activity (Aw),[2]; Day 14,0.972
same,water activity (Aw),[2]; Day 28,0.978
same,residual sodium nitrite,[3]; Day 1,85.05
same,residual sodium nitrite,[3]; Day 7,74.53
same,residual sodium nitrite,[3]; Day 14,121.03
same,residual sodium nitrite,[3]; Day 28,73.73
same,"Residual Nitrite, LSMean main effect of Concentration",[4]; [8],75.33 ppm
same,"Residual Nitrite, LSMean Conc × Temp",[4]; [9],119.32^a ppm
same,"Residual Nitrite, LSMean Conc × Temp",[4]; [10],60.08^bc ppm
same,"Residual Nitrite, LSMean Conc × Temp",[4]; [11],46.59^c ppm
same,"Residual Nitrite, LSMean main effect of Concentration",[4]; [12],81.08 ppm
same,"Residual Nitrite, LSMean Conc × Temp",[4]; [13],107.54^ab ppm
same,"Residual Nitrite, LSMean Conc × Temp",[4]; [14],77.51^abc ppm
same,"Residual Nitrite, LSMean Conc × Temp",[4]; [15],58.18^bc ppm
same,"Residual Nitrite, LSMean main effect of Concentration",[4]; [16],72.05 ppm
same,"Residual Nitrite, LSMean Conc × Temp",[4]; [17],86.41^abc ppm
same,"Residual Nitrite, LSMean Conc × Temp",[4]; [18],47.02^c ppm
same,"Residual Nitrite, LSMean Conc × Temp",[4]; [19],82.73^ab ppm
same,"Residual Nitrite, LSMean main effect of Temperature",[4]; [20],104.42^a ppm and 104.42 ppm
same,"Residual Nitrite, LSMean main effect of Temperature",[4]; [21],61.54^b ppm and 61.54 ppm
same,"Residual Nitrite, LSMean main effect of Temperature",[4]; [22],62.50^b ppm and 62.50 ppm
same,"Residual Nitrite, LSMean main effect of Concentration",[4]; [23],182.18 ppm
same,"Residual Nitrite, LSMean Conc × Temp",[4]; [24],187.92 ppm
same,"Residual Nitrite, LSMean Conc × Temp",[4]; [25],204.95 ppm
same,"Residual Nitrite, LSMean Conc × Temp",[4]; [26],153.68 ppm
same,"Residual Nitrite, LSMean main effect of Concentration",[4]; [27],202.15 ppm
same,"Residual Nitrite, LSMean Conc × Temp",[4]; [28],199.54 ppm
same,"Residual Nitrite, LSMean Conc × Temp",[4]; [29],214.72 ppm
same,"Residual Nitrite, LSMean Conc × Temp",[4]; [30],192.19 ppm
same,"Residual Nitrite, LSMean main effect of Concentration",[4]; [31],196.51 ppm
same,"Residual Nitrite, LSMean Conc × Temp",[4]; [32],184.28 ppm
same,"Residual Nitrite, LSMean Conc × Temp",[4]; [33],202.30 ppm
same,"Residual Nitrite, LSMean Conc × Temp",[4]; [34],202.96 ppm
same,"Residual Nitrite, LSMean main effect of Temperature",[4]; [35],190.58 ppm
same,"Residual Nitrite, LSMean main effect of Temperature",[4]; [36],207.32 ppm
same,"Residual Nitrite, LSMean main effect of Temperature",[4]; [37],182.94 ppm
same,"Residual Nitrite, LSMean main effect of Concentration",[5]; [8],42.30^b ppm and 42.30 ppm
same,"Residual Nitrite, LSMean Conc × Temp",[5]; [9],58.68 ppm
same,"Residual Nitrite, LSMean Conc × Temp",[5]; [10],41.15 ppm
same,"Residual Nitrite, LSMean Conc × Temp",[5]; [11],27.07 ppm
same,"Residual Nitrite, LSMean main effect of Concentration",[5]; [12],62.37^a ppm and 62.37 ppm
same,"Residual Nitrite, LSMean Conc × Temp",[5]; [13],66.93 ppm
same,"Residual Nitrite, LSMean Conc × Temp",[5]; [14],46.37 ppm
same,"Residual Nitrite, LSMean Conc × Temp",[5]; [15],73.82 ppm
same,"Residual Nitrite, LSMean main effect of Concentration",[5]; [16],68.22^a ppm and 68.22 ppm
same,"Residual Nitrite, LSMean Conc × Temp",[5]; [17],63.47 ppm
same,"Residual Nitrite, LSMean Conc × Temp",[5]; [18],57.10 ppm
same,"Residual Nitrite, LSMean Conc × Temp",[5]; [19],84.08 ppm
same,"Residual Nitrite, LSMean main effect of Temperature",[5]; [20],63.03 ppm
same,"Residual Nitrite, LSMean main effect of Temperature",[5]; [21],48.21 ppm
same,"Residual Nitrite, LSMean main effect of Temperature",[5]; [22],61.66 ppm
same,"Residual Nitrite, LSMean main effect of Concentration",[5]; [23],214.53^a ppm and 214.53 ppm
same,"Residual Nitrite, LSMean Conc × Temp",[5]; [24],173.70^ab ppm
same,"Residual Nitrite, LSMean Conc × Temp",[5]; [25],178.90^ab ppm
same,"Residual Nitrite, LSMean Conc × Temp",[5]; [26],164.54^b ppm
same,"Residual Nitrite, LSMean main effect of Concentration",[5]; [27],183.17^b ppm and 183.17 ppm
same,"Residual Nitrite, LSMean Conc × Temp",[5]; [28],208.65^ab ppm
same,"Residual Nitrite, LSMean Conc × Temp",[5]; [29],166.20^b ppm
same,"Residual Nitrite, LSMean Conc × Temp",[5]; [30],174.67^ab ppm
same,"Residual Nitrite, LSMean main effect of Concentration",[5]; [31],172.38^b ppm and 172.38 ppm
same,"Residual Nitrite, LSMean Conc × Temp",[5]; [32],196.48^ab ppm
same,"Residual Nitrite, LSMean Conc × Temp",[5]; [33],232.01^a ppm
same,"Residual Nitrite, LSMean Conc × Temp",[5]; [34],215.08^ab ppm
same,"Residual Nitrite, LSMean main effect of Temperature",[5]; [35],192.61 ppm
same,"Residual Nitrite, LSMean main effect of Temperature",[5]; [36],186.00 ppm
same,"Residual Nitrite, LSMean main effect of Temperature",[5]; [37],185.85 ppm
same,"Residual Nitrite, LSMean main effect of Concentration",[6]; [8],64.56^b ppm and 64.56 ppm
same,"Residual Nitrite, LSMean Conc × Temp",[6]; [9],66.48 ppm
same,"Residual Nitrite, LSMean Conc × Temp",[6]; [10],68.47 ppm
same,"Residual Nitrite, LSMean Conc × Temp",[6]; [11],58.74 ppm
same,"Residual Nitrite, LSMean main effect of Concentration",[6]; [12],78.51^ab ppm and 78.51 ppm
same,"Residual Nitrite, LSMean Conc × Temp",[6]; [13],80.52 ppm
same,"Residual Nitrite, LSMean Conc × Temp",[6]; [14],85.36 ppm
same,"Residual Nitrite, LSMean Conc × Temp",[6]; [15],69.65 ppm
same,"Residual Nitrite, LSMean main effect of Concentration",[6]; [16],90.59^a ppm and 90.59 ppm
same,"Residual Nitrite, LSMean Conc × Temp",[6]; [17],107.26 ppm
same,"Residual Nitrite, LSMean Conc × Temp",[6]; [18],86.10 ppm
same,"Residual Nitrite, LSMean Conc × Temp",[6]; [19],78.41 ppm
same,"Residual Nitrite, LSMean main effect of Temperature",[6]; [20],84.75^a ppm and 84.75 ppm
same,"Residual Nitrite, LSMean main effect of Temperature",[6]; [21],79.98^ab ppm and 79.98 ppm
same,"Residual Nitrite, LSMean main effect of Temperature",[6]; [22],68.93^b ppm and 68.93 ppm
same,"Residual Nitrite, LSMean Conc × Temp",[6]; [24],171.64^cde ppm
same,"Residual Nitrite, LSMean Conc × Temp",[6]; [25],148.63^e ppm
same,"Residual Nitrite, LSMean Conc × Temp",[6]; [26],162.23^de ppm
same,"Residual Nitrite, LSMean Conc × Temp",[6]; [28],202.54^bc ppm
same,"Residual Nitrite, LSMean Conc × Temp",[6]; [29],177.54^cde ppm
same,"Residual Nitrite, LSMean Conc × Temp",[6]; [30],165.70^cde ppm
same,"Residual Nitrite, LSMean Conc × Temp",[6]; [32],249.27^a ppm
same,"Residual Nitrite, LSMean Conc × Temp",[6]; [33],223.86^ab ppm
same,"Residual Nitrite, LSMean Conc × Temp",[6]; [34],189.46^cd ppm
same,"Residual Nitrite, LSMean main effect of Temperature",[6]; [35],207.82^a ppm and 207.82 ppm
same,"Residual Nitrite, LSMean main effect of Temperature",[6]; [36],183.34^b ppm and 183.34 ppm
same,"Residual Nitrite, LSMean main effect of Temperature",[6]; [37],172.46^b ppm and 172.46 ppm
same,Nitrite,NOS system [7],21.27^a ppm
same,Nitrite,NOS system [7]; listed as sodium nitrite,21.27 ppm and ~18 ppm
